Experimental data published in patent US20210276967A1 (OSPEDALE SAN RAFFAELE S.R.L., priority 2018, published 2021).
Where “and” joins values, the source holds several entries; their conditions need not be identical. Equal entries are not always repeated. Where two headings read alike, the source gives them in different places.

Assays:
[1] = Hepatocytes stability, mouse; type: in vitro ADME; details: data not shown
[2] = Mouse PK studies (plasma and liver exposure); type: in vivo, C57BL/6 mice; design: Liver [mM]: unit not given here; details: for Plasma concentrations / concentration at 24 h / concentration at 8 h / concentration at 0.25 h / concentration at 0.5 h / concentration at 1 h / concentration at 2 h / concentration at 4 h / concentration at 6 h: PO 100 mpk in 0.5% methocell; for AUC(0-t): read-out: AUC (0-24 h); for AUC: read-out: AUC Extrap
Excerpt: C57BL/6 mice are used to evaluate plasma and liver exposure and pharmacokinetic parameters after intravenous and oral administration (from 2 to 200 mpk according to the compound tested and the administration route). 12 (+3 spare) healthy C57BL/6N male mice are obtained from Charles River S.p.A. Calco (Como), Italy. Animals are ordered weighing 21 to 27 grams and approximately 7 weeks old. Before and during testing, animals are housed in Individual Ventilated Cages (IVCs Tecniplast) with sawdust as bedding (three animals for cage). Cages are identified by a color code label recording the sample ID, animal number and details of treatment (route, dose and sex). Animals are identified by unique number on tail via permanent marker. Animal room controls are set to maintain temperature within the range from 20 to 24° C. and relative humidity within the range from 40 to 70% and an average daily airflow of at least 10 fresh air changes per hour. Actual conditions are recorded. The room is lit by fluorescent tubes controlled to give an artificial cycle of 12 hours light and 12 hours dark each day. All animals are weighed immediately before testing. Animals are dosed IV in a fed state and PO in a fasted state.
Compounds (from 0.4 to 20 mg/mL according to the compound tested and the administration route) are dissolved in DMSO/PEG400/H2O (20/60/20) for IV administration and 0.5% Methocel E50 or 20% Hydroxypropyl-β-cyclodextrin (HP-β-CD) in citrate buffer pH=5 for PO administration. The appropriate dose volume of the test item, calculated for each animal according to body weight (administration volume: 5 mL/kg for IV or 5 mL/kg or 10 mL/kg for PO), is administered by injection into lateral tail vein using 2.5 mL syringe (BD Plasipak) for IV administration and administered orally by gavage using 5 mL Syringe (BD Plastipak) for PO administration. Whole blood sample (about 0.200 mL) is collected via retro orbital sinus using Isoflurane as anesthetic. Blood is collected in Li-Heparin Sartsted® gel tubes appropriately labeled indicating animal number and time point. Tubes are put in wet ice and then centrifuged within 15 minutes from blood collection. Centrifugation is performed using a Heraeus Multifuge® 3S/3S-R set, at 2200×g for 10 minutes, internal temperature is kept at 4° C. After the centrifugation, about 100 μL of plasma samples are obtained and immediately transferred to 1.5 mL Eppendorf tubes and frozen at −20° C. (24/24 h alarmed). Whole blood samples are collected at different times point (0-0.25-0.5-1-2-4-6-8-24 hours) after dosing and kept frozen (−20° C.) until assayed by LC/MS/MS. Livers are explanted at different time point (0-8-24 hours), washed with saline solution, transferred to Eppendorf tubes and frozen at −80° C. until assayed by LC/MS/MS. Analytical procedures: Plasma samples are extracted using Liquid Handling Robot Hamilton StarPlus by protein precipitation with acetonitrile. Then the samples are centrifuged (3000 rpm×15 min at 4° C.) and the supernatant transferred and dried under nitrogen. The samples are reconstituted in water/acetonitrile 90/10 or 50/50 and then injected directly into an UPLC column. Sample analyses are performed using an API 4000 or/and API 5000 or/and API 4000QTrap Mass Spectrometer interfaced via the Turbo Ion Spray (ESI) to an LC system consisting of an Acquity UPLC Sample Manager autosampler and Acquity UPLC Binary Solvent Manager Pump. The results are calculated using Analyst Software linear regression with 1/x*x weighting. The Assay Precision is calculated for the Quality Controls by Watson Lims database.
Cmax is the maximum compound concentration from oral dosing; Tmax is the time at which Cmax is reached; AUC (0-24) is the area under the concentration vs time curve from 0 to 24 hours; AUC extrap is the area under the curve (AUC) extrapolated to infinity, from dosing time based on the last observed concentration. […]

[3] = male, C57BL/6N, mouse, plasma, po, 100 mg/kg, plasma, PO 100 mg/kg in 0.5% methocell, mice, Mean
[4] = male, C57BL/6N, mouse, plasma, po, 100 mg/kg, plasma, PO 100 mg/kg in 0.5% methocell, mice, individual subject
[5] = plasma, PO 100 mg/kg in 0.5% methocell, mice, individual subject, 100 mg/kg

**Q.** Which “stability in mouse hepatocytes” value [1] does the source give for `Nc1ccc(C(=O)Nc2cc(F)c(F)c(F)c2)cc1S(N)(=O)=O` [Example E3, 4-amino-3-sulfamoyl-N-(3,4,5-trifluorophenyl)benzamide] here?
**A.** stable

**Q.** And the Plasma concentrations ([2]; 0.25 Hours, individual subject, 100 mg/kg)?
**A.** 5.05 µM and 3.95 µM

**Q.** What about the Plasma concentrations ([2]; 0.5 Hours, individual subject, 100 mg/kg) of the same compound?
**A.** 7.23 µM and 10.6 µM

**Q.** And the Plasma concentrations ([2]; 1 Hours, individual subject, 100 mg/kg)?
**A.** 17.2 µM and 9.61 µM

**Q.** What about the Plasma concentrations ([2]; 2 Hours, individual subject, 100 mg/kg) of the same compound?
**A.** 10.7 µM and 17.0 µM

**Q.** What about the Plasma concentrations ([2]; 4 Hours, individual subject, 100 mg/kg) of the same compound?
**A.** 11.2 µM and 10.6 µM

**Q.** What about the Plasma concentrations ([2]; 6 Hours, individual subject, 100 mg/kg) of the same compound?
**A.** 10.5 µM and 9.06 µM

**Q.** What about the Plasma concentrations ([2]; 8 Hours, individual subject, 100 mg/kg) of the same compound?
**A.** 10.4 µM and 12.1 µM

**Q.** And the concentration at 24 h ([2]; 8 Hours, individual subject, 100 mg/kg, read-out: Liver concentrations)?
**A.** 125.87 µM and 119.96 µM

**Q.** What about the Plasma concentrations ([2]; 24 Hours, individual subject, 100 mg/kg) of the same compound?
**A.** 0.268 µM and 0.184 µM and 0.0502 µM

**Q.** What about the concentration at 24 h ([2]; 24 Hours, individual subject, 100 mg/kg, read-out: Liver concentrations) of the same compound?
**A.** 0.6272 µM and 3.0342 µM and 1.8500 µM

**Q.** And the Kp at 8 h ([2]; male, C57BL/6N, mouse, liver, 100 mpk, 8 h after PO administration, read-out: liver levels higher than plasma (ratio liver/plasma concentration))?
**A.** 13

**Q.** What about the concentration at 8 h ([2]; male, C57BL/6N, mouse, liver, po, 100 mg/kg, 8 Hours, Mean, read-out: Liver concentrations) of the same compound?
**A.** 129 µM

**Q.** And the concentration at 8 h ([2]; male, C57BL/6N, mouse, liver, po, 100 mg/kg, 8 Hours, individual subject, read-out: Liver concentrations)?
**A.** 143 µM

**Q.** What about the concentration at 24 h ([2]; male, C57BL/6N, mouse, liver, po, 100 mg/kg, 24 Hours, Mean, read-out: Liver concentrations) of the same compound?
**A.** 2 µM

**Q.** What about the concentration at 0.25 h ([2]; male, C57BL/6N, mouse, plasma, po, 100 mg/kg, 0.25 Hours, Mean, read-out: Plasma concentrations) of the same compound?
**A.** 5 µM

**Q.** What about the concentration at 0.25 h ([2]; male, C57BL/6N, mouse, plasma, po, 100 mg/kg, 0.25 Hours, individual subject, read-out: Plasma concentrations) of the same compound?
**A.** 6.15 µM

**Q.** And the concentration at 0.5 h ([2]; male, C57BL/6N, mouse, plasma, po, 100 mg/kg, 0.5 Hours, Mean, read-out: Plasma concentrations)?
**A.** 9 µM

**Q.** And the concentration at 0.5 h ([2]; male, C57BL/6N, mouse, plasma, po, 100 mg/kg, 0.5 Hours, individual subject, read-out: Plasma concentrations)?
**A.** 7.77 µM

**Q.** And the concentration at 1 h ([2]; male, C57BL/6N, mouse, plasma, po, 100 mg/kg, 1 Hours, Mean, read-out: Plasma concentrations)?
**A.** 12 µM

**Q.** What about the concentration at 1 h ([2]; male, C57BL/6N, mouse, plasma, po, 100 mg/kg, 1 Hours, individual subject, read-out: Plasma concentrations) of the same compound?
**A.** 10.2 µM

**Q.** What about the concentration at 2 h ([2]; male, C57BL/6N, mouse, plasma, po, 100 mg/kg, 2 Hours, Mean, read-out: Plasma concentrations) of the same compound?
**A.** 14 µM

**Q.** What about the concentration at 2 h ([2]; male, C57BL/6N, mouse, plasma, po, 100 mg/kg, 2 Hours, individual subject, read-out: Plasma concentrations) of the same compound?
**A.** 13 µM

**Q.** What about the concentration at 4 h ([2]; male, C57BL/6N, mouse, plasma, po, 100 mg/kg, 4 Hours, Mean, read-out: Plasma concentrations) of the same compound?
**A.** 11 µM

**Q.** What about the concentration at 4 h ([2]; male, C57BL/6N, mouse, plasma, po, 100 mg/kg, 4 Hours, individual subject, read-out: Plasma concentrations) of the same compound?
**A.** 10.9 µM

**Q.** What about the concentration at 6 h ([2]; male, C57BL/6N, mouse, plasma, po, 100 mg/kg, 6 Hours, Mean, read-out: Plasma concentrations) of the same compound?
**A.** 10 µM

**Q.** And the concentration at 6 h ([2]; male, C57BL/6N, mouse, plasma, po, 100 mg/kg, 6 Hours, individual subject, read-out: Plasma concentrations)?
**A.** 11.9 µM

**Q.** What about the concentration at 8 h ([2]; male, C57BL/6N, mouse, plasma, po, 100 mg/kg, 8 Hours, Mean, read-out: Plasma concentrations) of the same compound?
**A.** 10 µM

**Q.** What about the concentration at 8 h ([2]; male, C57BL/6N, mouse, plasma, po, 100 mg/kg, 8 Hours, individual subject, read-out: Plasma concentrations) of the same compound?
**A.** 9.01 µM

**Q.** And the concentration at 24 h ([2]; male, C57BL/6N, mouse, plasma, po, 100 mg/kg, 24 Hours, Mean, read-out: Plasma concentrations)?
**A.** 0.2 µM

**Q.** And the Cmax ([2]; male, C57BL/6N, mouse, plasma, po, 100 mg/kg, PO 100 mg/kg in 0.5% methocell, mice, Mean)?
**A.** 16 µM

**Q.** What about the Cmax ([2]; male, C57BL/6N, mouse, plasma, po, 100 mg/kg, PO 100 mg/kg in 0.5% methocell, mice, individual subject) of the same compound?
**A.** 17.2 µM

**Q.** And the AUC(0-t) [2, 3]?
**A.** 172 µM·h

**Q.** And the AUC [2, 3]?
**A.** 173 µM·h

**Q.** And the Tmax ([2]; male, C57BL/6N, mouse, plasma, po, 100 mg/kg, plasma, PO 100 mg/kg in 0.5% methocell, mice, Mean, read-out: Tmax)?
**A.** 1.7 h

**Q.** What about the AUC(0-t) [2, 4] of the same compound?
**A.** 171 µM·h

**Q.** And the AUC [2, 4]?
**A.** 172 µM·h

**Q.** And the Tmax ([2]; male, C57BL/6N, mouse, plasma, po, 100 mg/kg, plasma, PO 100 mg/kg in 0.5% methocell, mice, individual subject, read-out: Tmax)?
**A.** 1 h

**Q.** And the clearance ([2]; male, C57BL/6N, mouse, plasma, mice, read-out: in vivo clearance)?
**A.** 10 mL/min/kg

**Q.** And the “AUC (0-24 h)” value [2, 5]?
**A.** 186 µM·h and 160 µM·h

**Q.** And the “AUC Extrap” value [2, 5]?
**A.** 186.4 µM·h and 161.7 µM·h

**Q.** And the Cmax [2, 5]?
**A.** 17 µM and 13 µM

**Q.** And the Tmax [2, 5]?
**A.** 2.00 h

**Q.** For `Cc1cc(N)c(S(N)(=O)=O)cc1C(=O)Nc1cc(F)c(F)c(F)c1` [Example E17, 4-amino-2-methyl-5-sulfamoyl-N-(3,4,5-trifluorophenyl)benzamide], which “Liver [mM]” value ([2]; PO 25 mg/kg in 0.5% methocell, mice) is on record?
**A.** 317

**Q.** And the “Liver [mM]” value ([2]; PO 75 mg/kg in 0.5% methocell, mice)?
**A.** 747

**Q.** And the “Liver [mM]” value ([2]; PO 150 mg/kg in 0.5% methocell, mice)?
**A.** 677

**Q.** And the Kp ([2]; male, C57BL/6N, mouse, liver, PO 25 mg/kg in 0.5% methocell, mice)?
**A.** 15.9

**Q.** And the Kp ([2]; male, C57BL/6N, mouse, liver, PO 75 mg/kg in 0.5% methocell, mice)?
**A.** 14.4

**Q.** What about the Kp ([2]; male, C57BL/6N, mouse, liver, PO 150 mg/kg in 0.5% methocell, mice) of the same compound?
**A.** 13.8
